In ChEMBL document CHEMBL4190326, “Novel Gomisin B analogues as potential cytotoxic agents: Design, synthesis, biological evaluation and docking studies” (Eur J Med Chem, 2017):
Calls of active or inactive are those of the source. No cut-off for these calls is given here.

How the values were obtained:
[1] = test system: SiHa; experiment: Cytotoxicity against human SiHa cells assessed as reduction in cell viability measured after 48 hrs by SRB assay; assay type: functional, cell-based
[2] = test system: DU-145; experiment: Cytotoxicity against human DU145 cells assessed as reduction in cell viability measured after 48 hrs by SRB assay; assay type: functional, cell-based; settings: DU-145, 48 h
[3] = test system: IMR-32; experiment: Cytotoxicity against human IMR32 cells assessed as reduction in cell viability measured after 48 hrs by SRB assay; assay type: functional, cell-based; settings: IMR-32, 48 h
[4] = Selectivity index, ratio of IC50 for HEK293 cells to IC50 for human DU145 cells; assay type: toxicity; settings: HEK293 cells versus DU145 cells, read-out: Ratio IC50
[5] = test system: HEK293; experiment: Cytotoxicity against HEK293 cells assessed as reduction in cell viability measured after 48 hrs by SRB assay; assay type: cell-based; settings: Homo sapiens, HEK293, 48 h
[6] = test system: PANC-1; experiment: Cytotoxicity against human PANC1 cells assessed as reduction in cell viability measured after 48 hrs by SRB assay; assay type: functional, cell-based; settings: PANC-1, 48 h
[7] = test system: A549; experiment: Cytotoxicity against human A549 cells assessed as reduction in cell viability measured after 48 hrs by SRB assay; assay type: functional, cell-based; settings: A549, 48 h
[8] = test system: MDA-MB-231; experiment: Cytotoxicity against human MDA-MB-231 cells assessed as reduction in cell viability measured after 48 hrs by SRB assay; assay type: functional, cell-based; settings: MDA-MB-231, 48 h
[9] = test system: HeLa; experiment: Cell cycle arrest in human HeLa cells assessed as G2/M phase accumulation after 24 hrs by propidium iodide staining based flow cytometric analysis (reference value: 29.18%); assay type: functional
[10] = species on record: Bos taurus; experiment: Inhibition of bovine brain tubulin polymerization measured for 1 hr at 1 min interval by fluorescence assay relative to control
[11] = molecular target: T1, Tubulin (Homo sapiens) (UniProt P68371+Q9H4B7+P0DPH7+P68366+Q13509+Q71U36+P04350+Q3ZCM7+P07437+P68363+Q9BQE3+Q6PEY2+Q13885+Q9BVA1+Q9BUF5); experiment: Induction of tubulin polymerization in human HeLa cells assessed as chromosomal alignment on metaphase plate at 10 uM after 24 hrs by DAPI staining/confocal microscopy-based immunofluorescence analysis; assay type: cell-based
[12] = molecular target: T1, Tubulin (Homo sapiens); experiment: Induction of tubulin polymerization in human HeLa cells assessed as increase in insoluble tubulin fraction after 24 hrs by Western blot analysis; assay type: cell-based
[13] = species on record: Bos taurus; experiment: Induction of bovine brain tubulin polymerization at 5 uM measured for 1 hr at 1 min interval by fluorescence assay relative to control
[14] = test system: HeLa; experiment: Cell cycle arrest in human HeLa cells assessed as G2/M phase accumulation at 5 uM after 24 hrs by propidium iodide staining based flow cytometric analysis (reference value: 29.18%); assay type: functional
[15] = test system: HeLa; experiment: Cell cycle arrest in human HeLa cells assessed as G2/M phase accumulation at 10 uM after 24 hrs by propidium iodide staining based flow cytometric analysis (reference value: 29.18%); assay type: functional
[16] = test system: HeLa; experiment: Cell cycle arrest in human HeLa cells assessed as G2/M phase accumulation after 24 hrs by propidium iodide staining based flow cytometric analysis; assay type: functional
[17] = test system: HeLa; experiment: Cell cycle arrest in human HeLa cells assessed as G2/M phase accumulation at 20 uM after 24 hrs by propidium iodide staining based flow cytometric analysis (reference value: 29.18%); assay type: functional

fold change (FC) [10]	Activity [11]	Activity [12]	fold change (FC) [13]	SMILES	IC50 [1]	IC50 [2]	IC50 [3]	selectivity ratio [4]	IC50 [5]	IC50 [6]	IC50 [7]	IC50 [8]	Activity [9]	Activity [14]	Activity [15]	Activity [16]	Activity [17]
–	–	–	–	COc1ccc(OC)c(-n2cc(CO/N=C3\c4cc(OC)c(OC)c(OC)c4-c4c(cc5c(c4OC)OCO5)C[C@H](C)[C@@]3(C)O)nn2)c1	74.3 µM	86.7 µM	76.5 µM	1.1	> 100 µM	81.2 µM	91.8 µM	73.8 µM	–	–	–	–	–
–	–	–	–	COC(=O)Nc1nc2cc(C(=O)c3cccs3)ccc2[nH]1 [NOCODAZOLE]	–	–	–	–	–	–	–	–	91.7%	–	–	–	–
–	–	–	–	COc1cc2c(c(OC)c1OC)-c1c(cc3c(c1OC)OCO3)C[C@H](C)[C@@](C)(O)/C2=N/OCc1cn(CC(=O)Nc2ccccc2)nn1	88.6 µM	91.5 µM	86.3 µM	1.1	> 100 µM	91.1 µM	93.7 µM	79.8 µM	–	–	–	–	–
0.15	–	–	–	COc1ccc(/C=C\c2cc(OC)c(OC)c(OC)c2)cc1O	–	–	–	–	–	–	–	–	–	–	–	–	–
–	–	–	–	COc1cc2c(c(OC)c1OC)-c1c(cc3c(c1OC)OCO3)C[C@H](C)[C@@](C)(O)[C@H]2O	68.3 µM	87.4 µM	86.7 µM	1.14	> 100 µM	78.4 µM	94.2 µM	81.2 µM	–	–	–	–	–
–	–	–	–	COc1cc2c(c(OC)c1OC)-c1c(cc3c(c1OC)OCO3)C[C@H](C)[C@@](C)(O)/C2=N/OCc1cn(-c2cc([N+](=O)[O-])ccc2Cl)nn1	94.5 µM	95.1 µM	86.4 µM	1.1	> 100 µM	93.4 µM	96.4 µM	85.7 µM	–	–	–	–	–
–	–	–	–	COc1cc(OC)c(-n2cc(CO/N=C3\c4cc(OC)c(OC)c(OC)c4-c4c(cc5c(c4OC)OCO5)C[C@H](C)[C@@]3(C)O)nn2)cc1OC	69.5 µM	86.2 µM	76.8 µM	1.1	> 100 µM	76.8 µM	87.5 µM	72.8 µM	–	–	–	–	–
–	–	–	–	C/C=C(/C)C(=O)O[C@H]1c2cc(OC)c(OC)c(OC)c2-c2c(cc3c(c2OC)OCO3)C[C@H](C)[C@@]1(C)O [ARISANSCHININ N]	51.2 µM	64.7 µM	66.8 µM	1.6	52 µM	53.6 µM	55.1 µM	60.5 µM	–	–	–	–	–
–	–	–	–	COc1cccc(-n2cc(CO/N=C3\c4cc(OC)c(OC)c(OC)c4-c4c(cc5c(c4OC)OCO5)C[C@H](C)[C@@]3(C)O)nn2)c1	92.1 µM	95.8 µM	77.4 µM	1.1	> 100 µM	98 µM	96.4 µM	82.1 µM	–	–	–	–	–
–	–	–	–	COc1cc2c(c(OC)c1OC)-c1c(cc3c(c1OC)OCO3)C[C@H](C)[C@@](C)(O)C2=O	75.1 µM	83.1 µM	72.3 µM	1.2	> 100 µM	88.6 µM	94.8 µM	73.1 µM	–	–	–	–	–
–	–	–	–	CCc1ccc(-n2cc(CO/N=C3\c4cc(OC)c(OC)c(OC)c4-c4c(cc5c(c4OC)OCO5)C[C@H](C)[C@@]3(C)O)nn2)cc1	89.7 µM	91.7 µM	75.8 µM	1.1	> 100 µM	83.4 µM	93.8 µM	79.1 µM	–	–	–	–	–
–	–	–	–	COc1cc2c(c(OC)c1OC)-c1c(cc3c(c1OC)OCO3)C[C@H](C)[C@@](C)(O)/C2=N/OCc1cn(-c2cc(C)cc(C)c2)nn1	85.1 µM	90.6 µM	79.8 µM	1.1	> 100 µM	89.3 µM	91.7 µM	81.4 µM	–	–	–	–	–
–	Active	Dose-dependent effect	1.25	COc1cc2c(c(OC)c1OC)-c1c(cc3c(c1OC)OCO3)C[C@H](C)[C@@](C)(O)/C2=N/OCc1cn(-c2ccc([N+](=O)[O-])c(Cl)c2)nn1	–	12.8 µM	8.6 µM	–	50.2 µM	–	7.9 µM	11.4 µM	–	37.11%	43.06%	Dose-dependent effect	46.83%
